# According to publication PMC4669708 (Cell Death & Disease, 2015):
# Legend:
# Test in all cases: c-ponatinib pulldown LC-MS/MS
# Assay type in all cases: binding
# HSPA5 = HSPA5 (Homo sapiens, UniProt P11021)
# Experimental: (§1) Drug-affinity matrices were prepared as described previously.[51] In brief, 25 nmol of c-ponatinib were immobilized on 50 μl NHS-activated Sepharose 4 Fast Flow beads (GE Healthcare Bio-Sciences AB, Uppsala, Sweden). 10 mg whole cell lysate was used as protein input per replicate. Affinity chromatography and elution were performed in duplicate. After elution, the enriched proteins were reduced with dithiothreitol (DTT) and cysteine residues were alkylated by incubation with iodoacetamide. The samples were digested with modified porcine trypsin (Promega). Five percent of the digested eluates were purified and concentrated by C18 reversed-phase material. Subsequently, samples were analyzed in duplicates by gel-free one-dimensional LCMS.
# (§2) Precursor and MS/MS peaks were extracted from the RAW files and saved in the MGF format using msconvert tool (ProteoWizard Library v2.1.2708, www.proteowizard.sourceforge.net) for subsequent protein identification. An initial database search was performed with broader mass tolerance and conservative score threshold to re-calibrate the mass lists for optimal final protein identification. For the initial protein database search, Mascot (www.matrixscience.com, v2.3.02) was used. Error tolerances on the precursor and fragment ions were ±10 p.p.m. and ±0.6 Da, respectively, and the database search limited to fully-tryptic peptides with maximum one missed cleavage, carbamidomethyl cysteine and methionine oxidation set as fixed and variable modifications, respectively. The Mascot peptide ion score threshold was set to 30, and at least three peptide identifications per protein were required. Searches were performed against the human UniProtKB/SwissProt database (www.uniprot.org release 2013.01) including all protein isoforms. The initial peptide identifications were used to deduce independent linear transformations for precursor and fragment masses that would minimize the mean square deviation of measured masses from theoretical. Re-calibrated mass list files were searched against the same human protein database by a combination of Mascot and Phenyx (GeneBio SA, Geneva, Switzerland; version 2.5.14) search engines using narrower mass tolerances (±4 p.p.m. and ±0.3 Da). One missed tryptic cleavage site was allowed. Carbamidomethyl cysteine was set as a fixed modification and oxidized methionine was set as a variable modification. To validate the proteins, Mascot and Phenyx output files were processed by internally developed parsers. Proteins with ≥2 unique peptides above a score T1, or with a single peptide above a score T2 were selected as unambiguous identifications. Additional peptides for these validated proteins with score >T3 were also accepted. For Mascot searches, the following thresholds were used: T1=14, T2=40 and T3=10; Phenyx thresholds were set to 4.2, 4.75 and 3.5, respectively (P-value<10^−3). The validated proteins retrieved by the two algorithms were merged, any spectral conflicts discarded and grouped according to shared peptides. A false discovery rate of <1% for protein identifications and <0.1% for peptides (including the ones exported with lower scores) was determined by applying the same procedure against a database of reversed protein sequences. […] In addition to Mascot protein scores that were proposed as an estimate of protein abundance by the original algorithm, the modified version also included Phenyx protein scores and spectral counts. The algorithm first estimated three measure-specific P-values for each putative interaction, and, in contrast to,[69] P-value calculation utilized the quantiles of the measurements rather than the original data. The Fisher's method was used to combine the three resulting P-values into a single P-value for drug–protein interaction specificity. We have also correlated interaction P-values with the magnitude of competition effect represented by the fold reduction of spectral counts on free compound competition. […]
# YWHAE = target: T1, YWHAE (Homo sapiens, UniProt P62258)
# T1 sequence (P62258 1-255): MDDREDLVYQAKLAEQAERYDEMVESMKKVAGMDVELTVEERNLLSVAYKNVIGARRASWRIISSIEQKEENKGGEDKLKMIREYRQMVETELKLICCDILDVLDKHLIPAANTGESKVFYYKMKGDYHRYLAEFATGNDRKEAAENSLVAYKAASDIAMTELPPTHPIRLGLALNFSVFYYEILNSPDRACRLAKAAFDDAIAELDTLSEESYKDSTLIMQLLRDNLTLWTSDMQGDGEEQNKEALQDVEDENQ
# Experimental: as §1, §2
# YWHAH = target: T2, YWHAH (Homo sapiens, UniProt Q04917)
# T2 sequence (Q04917 1-246): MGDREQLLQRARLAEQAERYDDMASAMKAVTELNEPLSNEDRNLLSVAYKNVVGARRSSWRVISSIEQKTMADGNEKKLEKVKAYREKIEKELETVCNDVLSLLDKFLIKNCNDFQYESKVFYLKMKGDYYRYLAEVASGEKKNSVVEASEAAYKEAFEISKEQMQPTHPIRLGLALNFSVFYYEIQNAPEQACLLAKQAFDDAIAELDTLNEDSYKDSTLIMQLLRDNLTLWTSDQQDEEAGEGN
# Experimental: as §1, §2
# JAK1 = JAK1 (Homo sapiens, UniProt P23458)
# Sequence of JAK1 (P23458 whole entry): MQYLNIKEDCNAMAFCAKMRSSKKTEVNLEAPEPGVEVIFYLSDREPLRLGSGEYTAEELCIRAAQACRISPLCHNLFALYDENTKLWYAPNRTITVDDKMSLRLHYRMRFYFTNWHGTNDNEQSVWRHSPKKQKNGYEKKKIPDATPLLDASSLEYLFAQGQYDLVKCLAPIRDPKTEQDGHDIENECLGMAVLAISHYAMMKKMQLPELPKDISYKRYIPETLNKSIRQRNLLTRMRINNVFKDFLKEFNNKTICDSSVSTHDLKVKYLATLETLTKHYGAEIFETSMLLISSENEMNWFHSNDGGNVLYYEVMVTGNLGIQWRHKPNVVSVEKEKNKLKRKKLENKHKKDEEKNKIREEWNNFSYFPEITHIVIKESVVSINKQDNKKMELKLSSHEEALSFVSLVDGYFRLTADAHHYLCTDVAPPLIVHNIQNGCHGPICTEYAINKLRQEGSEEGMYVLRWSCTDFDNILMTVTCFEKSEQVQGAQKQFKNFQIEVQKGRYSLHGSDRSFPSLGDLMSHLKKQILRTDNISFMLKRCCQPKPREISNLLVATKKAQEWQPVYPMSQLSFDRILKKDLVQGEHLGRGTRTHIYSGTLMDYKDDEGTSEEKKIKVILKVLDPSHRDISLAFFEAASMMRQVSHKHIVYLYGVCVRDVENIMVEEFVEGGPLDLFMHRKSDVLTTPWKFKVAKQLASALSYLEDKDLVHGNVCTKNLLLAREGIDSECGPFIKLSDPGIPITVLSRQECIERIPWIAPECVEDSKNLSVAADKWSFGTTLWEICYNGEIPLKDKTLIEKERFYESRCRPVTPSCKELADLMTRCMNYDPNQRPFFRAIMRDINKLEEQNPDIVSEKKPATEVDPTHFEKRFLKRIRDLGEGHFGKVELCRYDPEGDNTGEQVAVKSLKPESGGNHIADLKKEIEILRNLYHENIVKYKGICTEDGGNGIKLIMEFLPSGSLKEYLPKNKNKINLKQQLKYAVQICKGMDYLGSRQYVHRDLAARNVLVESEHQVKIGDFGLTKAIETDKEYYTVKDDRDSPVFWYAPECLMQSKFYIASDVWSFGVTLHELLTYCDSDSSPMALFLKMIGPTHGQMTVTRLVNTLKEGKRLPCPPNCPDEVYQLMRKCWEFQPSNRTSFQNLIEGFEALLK
# Experimental: as §1, §2
# ZAK = ZAK (Homo sapiens, UniProt Q9NYL2)
# Sequence of ZAK (Q9NYL2 whole entry): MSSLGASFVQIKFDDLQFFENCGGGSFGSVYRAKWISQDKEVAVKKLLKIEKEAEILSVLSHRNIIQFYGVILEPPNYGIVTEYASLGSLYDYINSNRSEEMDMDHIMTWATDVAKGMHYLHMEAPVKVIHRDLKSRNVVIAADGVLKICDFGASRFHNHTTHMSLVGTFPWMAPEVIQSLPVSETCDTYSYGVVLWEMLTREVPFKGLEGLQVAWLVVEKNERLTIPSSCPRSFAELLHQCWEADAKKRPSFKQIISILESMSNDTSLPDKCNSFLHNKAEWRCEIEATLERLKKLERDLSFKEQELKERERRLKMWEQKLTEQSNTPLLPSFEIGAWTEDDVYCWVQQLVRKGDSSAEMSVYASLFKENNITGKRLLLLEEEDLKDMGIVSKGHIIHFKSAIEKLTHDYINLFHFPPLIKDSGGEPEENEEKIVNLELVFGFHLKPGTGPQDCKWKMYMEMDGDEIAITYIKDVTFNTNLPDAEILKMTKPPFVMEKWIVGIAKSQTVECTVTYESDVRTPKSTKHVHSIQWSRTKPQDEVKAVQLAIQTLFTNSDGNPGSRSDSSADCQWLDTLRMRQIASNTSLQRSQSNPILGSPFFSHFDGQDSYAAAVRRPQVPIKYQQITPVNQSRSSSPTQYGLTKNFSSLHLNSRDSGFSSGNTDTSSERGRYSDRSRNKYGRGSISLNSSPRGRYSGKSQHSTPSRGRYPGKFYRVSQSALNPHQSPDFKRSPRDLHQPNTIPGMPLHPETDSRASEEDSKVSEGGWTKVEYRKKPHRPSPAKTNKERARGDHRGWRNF
# Experimental: as §1, §2
# HSPA4 = HSPA4 (Homo sapiens, UniProt P34932)
# Sequence of HSPA4 (P34932 whole entry): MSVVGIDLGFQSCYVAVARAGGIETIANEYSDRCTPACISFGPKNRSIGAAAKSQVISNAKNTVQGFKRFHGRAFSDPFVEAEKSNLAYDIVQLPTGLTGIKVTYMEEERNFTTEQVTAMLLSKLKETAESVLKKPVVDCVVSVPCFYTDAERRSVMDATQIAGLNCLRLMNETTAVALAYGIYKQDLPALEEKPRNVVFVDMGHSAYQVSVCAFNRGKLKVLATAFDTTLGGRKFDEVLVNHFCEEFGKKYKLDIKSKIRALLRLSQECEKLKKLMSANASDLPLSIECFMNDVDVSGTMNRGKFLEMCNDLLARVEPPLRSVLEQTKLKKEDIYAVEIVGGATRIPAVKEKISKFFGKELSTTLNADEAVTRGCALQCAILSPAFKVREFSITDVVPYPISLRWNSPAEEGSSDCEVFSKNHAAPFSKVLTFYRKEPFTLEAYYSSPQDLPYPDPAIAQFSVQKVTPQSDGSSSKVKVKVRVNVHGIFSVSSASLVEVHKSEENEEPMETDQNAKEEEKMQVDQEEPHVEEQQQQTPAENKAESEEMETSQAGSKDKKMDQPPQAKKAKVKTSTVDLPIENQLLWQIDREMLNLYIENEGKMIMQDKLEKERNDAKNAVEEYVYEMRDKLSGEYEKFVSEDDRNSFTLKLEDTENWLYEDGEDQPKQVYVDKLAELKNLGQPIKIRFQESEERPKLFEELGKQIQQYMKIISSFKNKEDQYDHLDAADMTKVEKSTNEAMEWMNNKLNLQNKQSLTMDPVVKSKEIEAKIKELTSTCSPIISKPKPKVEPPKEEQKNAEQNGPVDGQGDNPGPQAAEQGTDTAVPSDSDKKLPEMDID
# Experimental: as §1, §2
# HSPA9 = HSPA9 (Homo sapiens, UniProt P38646)
# Sequence of HSPA9 (P38646 47-679): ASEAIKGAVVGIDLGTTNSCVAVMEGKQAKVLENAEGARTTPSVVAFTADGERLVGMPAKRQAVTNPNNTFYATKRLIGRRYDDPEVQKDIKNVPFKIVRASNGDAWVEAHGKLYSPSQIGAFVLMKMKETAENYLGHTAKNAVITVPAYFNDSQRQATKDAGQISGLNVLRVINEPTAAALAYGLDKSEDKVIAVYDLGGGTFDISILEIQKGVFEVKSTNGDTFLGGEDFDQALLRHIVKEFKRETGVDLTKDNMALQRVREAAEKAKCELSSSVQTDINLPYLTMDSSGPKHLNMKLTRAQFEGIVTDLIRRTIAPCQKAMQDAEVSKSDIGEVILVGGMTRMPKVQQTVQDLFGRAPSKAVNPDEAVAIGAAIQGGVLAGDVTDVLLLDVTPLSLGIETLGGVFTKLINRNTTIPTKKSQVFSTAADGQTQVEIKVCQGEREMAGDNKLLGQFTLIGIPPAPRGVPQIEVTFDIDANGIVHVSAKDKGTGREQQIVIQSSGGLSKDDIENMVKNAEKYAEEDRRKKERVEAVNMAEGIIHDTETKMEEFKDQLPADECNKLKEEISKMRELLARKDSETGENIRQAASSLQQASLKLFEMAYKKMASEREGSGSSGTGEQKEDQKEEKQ
# Experimental: as §1, §2
# Sequence of HSPA5 (P11021 19-654): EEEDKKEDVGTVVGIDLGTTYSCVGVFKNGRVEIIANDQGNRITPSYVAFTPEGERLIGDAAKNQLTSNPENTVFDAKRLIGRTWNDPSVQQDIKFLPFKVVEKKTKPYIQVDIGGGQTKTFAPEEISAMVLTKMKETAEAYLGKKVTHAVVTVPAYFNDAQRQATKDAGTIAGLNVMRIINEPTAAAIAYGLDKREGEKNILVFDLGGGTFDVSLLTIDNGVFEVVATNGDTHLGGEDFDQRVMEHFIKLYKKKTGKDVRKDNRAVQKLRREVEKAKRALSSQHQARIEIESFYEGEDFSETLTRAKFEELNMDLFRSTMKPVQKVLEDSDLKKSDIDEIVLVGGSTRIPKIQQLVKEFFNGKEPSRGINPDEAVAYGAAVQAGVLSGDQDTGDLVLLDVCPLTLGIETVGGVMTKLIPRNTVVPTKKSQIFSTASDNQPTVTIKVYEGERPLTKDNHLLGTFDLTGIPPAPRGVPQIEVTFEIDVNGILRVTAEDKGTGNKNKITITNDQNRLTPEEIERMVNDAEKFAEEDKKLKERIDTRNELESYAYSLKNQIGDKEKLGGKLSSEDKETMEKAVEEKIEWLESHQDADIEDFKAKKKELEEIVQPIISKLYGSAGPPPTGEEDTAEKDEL
smiles,measurement,setting,value
Cc1ccc(C(=O)Nc2ccc(CN3CCN(CCCN)CC3)c(C(F)(F)F)c2)cc1C#Cc1cnc2cccnn12 [c-ponatinib],Av. SC comp.,HSPA5; + free ponatinib,2.75
same,Total SC comp.,HSPA5; + free ponatinib,11
same,Av. SC,HSPA5; no competitor,7
same,Total SC,HSPA5; no competitor,28
same,Av. SC comp.,YWHAE; + free ponatinib,1
same,Total SC comp.,YWHAE; + free ponatinib,4
same,Av. SC,YWHAE; no competitor,13
same,Total SC,YWHAE; no competitor,52
same,Av. SC comp.,YWHAH; + free ponatinib,0.25
same,Total SC comp.,YWHAH; + free ponatinib,1
same,Av. SC,YWHAH; no competitor,6
same,Total SC,YWHAH; no competitor,24
same,Av. SC comp.,JAK1; + free ponatinib,0
same,Total SC comp.,JAK1; + free ponatinib,0
same,Av. SC,JAK1; no competitor,21.5
same,Total SC,JAK1; no competitor,86
same,Av. SC comp.,ZAK; + free ponatinib,0
same,Total SC comp.,ZAK; + free ponatinib,0
same,Av. SC,ZAK; no competitor,65.25
same,Total SC,ZAK; no competitor,261
same,Av. SC comp.,HSPA4; + free ponatinib,1.75
same,Total SC comp.,HSPA4; + free ponatinib,7
same,Av. SC,HSPA4; no competitor,5.5
same,Total SC,HSPA4; no competitor,22
same,Av. SC comp.,HSPA9; + free ponatinib,0
same,Total SC comp.,HSPA9; + free ponatinib,0
same,Av. SC,HSPA9; no competitor,3.25
same,Total SC,HSPA9; no competitor,13
